Test results published in paper PMC10102067, “Synthesis of vancomycin fluorescent probes that retain antimicrobial activity, identify Gram-positive bacteria, and detect Gram-negative outer membrane damage” (Communications Biology, 2023).
Values after ≈ are worked out from the molar mass of the structure shown. Where a name gives a salt, the structure may show the parent alone. Read-outs that look alike come from different tables or passages of the source. Bridge positions count the residues as written; N and C are the ends. Square brackets hold non-standard residues; d marks the D form. Peptide text beside a SMILES is read from it. * marks the point of attachment. Decanoyl(3R-OH) = CCCCCCC[C@@H](O)CC(=O)*; dDab = NCC[C@@H](N)C(=O)O; Dab = NCC[C@H](N)C(=O)O

Legend:
E. coli = test: microbe, parasite or virus in culture
Method: Bacteria were obtained from the American Type Culture Collection (ATCC; Manassas, VA, USA), Merck Sharp & Dohme (Kenilworth, NJ), the Coli Genetic Stock Center (CGSC, Yale University), Network on Antimicrobial Resistance in Staphylococcus aureus (NARSA) via BEI Resources (www.beiresources.org) and independent academic clinical isolate and mutant collections. All species used in this study were described fully in Table S4. Bacteria were cultured in Cation-Adjusted Mueller-Hinton Broth (CAMHB, Bacto Laboratories, Cat No. 212322) or Muller Hinton Broth (MHB, Bacto Laboratories, Cat No. 211443) at 37 °C overnight. A sample of each culture was then diluted 50-fold in MHB and incubated at 37 °C for 1.5–3 h. The stock solutions of vancomycin probes 7, 8 and 9 were prepared at 1.28 mg/mL in sterile water. The compounds were serially diluted two-fold across the wells, with concentrations ranging from 0.06 µg/mL to 128 µg/mL, plated in duplicate. […]

E. coli ATCC 25922 = test: Permeability test in Gram-negative bacteria, flow cytometry method (Fig. 4i); format: cell-based; details: compound 0.125–128 µg/mL 1 h 37 °C, then probe 9 32 µg/mL 30 min
Method: E. coli ATCC 25922 cells were cultured in LB at 37 °C overnight. […] The resultant mid-log phase cultures were harvested and washed once with HBSS, then resuspended in HBSS to an OD600 of 1. Then 1 mL of the cultures were transferred to Eppendorf tubes and centrifuged. Solutions (1 mL) of antibiotics (0.125–128 µg /mL) and isopropanol (100 %) was added, then left for 1 h at 37 °C with shaking (180 rpm). […] Bacteria were washed again with HBSS, the pellets were suspended in 200 µL of HBSS, and 100 µL of the suspended bacteria solution was added into black 96-well plates (Black flat bottom, 96-Well plate, Corning, Cat No. CLS3915-100EA) for Tecan plate reader measurement (Tecan Plate Reader, Infinite M1000 Pro). Excitation: 475 nm; Emission: 550 nm. On the other hand, suspended bacteria solution was then diluted 1000-fold in HBSS for flow cytometer measurement (Cytoflex S, Beckman Coulter, Inc. 250 S. Kraemer Blvd. Brea, CA 92821 U.S.A.). The detector used here was FITC (Excitation 488 nm; Emission 525/40 nm). 40000 events were collected. The data was analysed using Kaluza Analysis 2.1 software (Beckman Coulter, Inc. 250 S. Kraemer Blvd. Brea, CA 92821 U.S.A.) and statistical software GraphPad Prism 8 (San Diego, CA, U.S.A.).

[1] = Escherichia coli, read-out: E. coli MIC, Table S2: CGSC7139 DC2 mutant, CaMHB, non-treated polystyrene plate
[2] = Escherichia coli, read-out: E. coli MIC, Table S2: CGSC7139 DC2 mutant, MHB, non-treated polystyrene plate
[3] = Escherichia coli, read-out: E. coli MIC, Table S2: MB4902 LpxC mutant, CaMHB, non-treated polystyrene plate
[4] = Escherichia coli, read-out: E. coli MIC, Table S2: MB4902 LpxC mutant, MHB, non-treated polystyrene plate
[5] = Table S2: CGSC7139 DC2 mutant, CaMHB, non-treated polystyrene plate
[6] = Table S2: CGSC7139 DC2 mutant, MHB, non-treated polystyrene plate
[7] = Table S2: MB4902 LpxC mutant, CaMHB, non-treated polystyrene plate
[8] = Table S2: MB4902 LpxC mutant, MHB, non-treated polystyrene plate
[9] = Escherichia coli, ATCC25922, read-out: E. coli MIC, Table S2: ATCC 25922 FDA Control, CaMHB, non-treated polystyrene plate
[10] = Escherichia coli, ATCC25922, read-out: E. coli MIC, Table S2: ATCC 25922 FDA Control, MHB, non-treated polystyrene 96-well plate
[11] = Escherichia coli, read-out: E. coli MIC, Table S2: MB4827 K12, CaMHB, non-treated polystyrene plate
[12] = Escherichia coli, read-out: E. coli MIC, Table S2: MB4827 K12, MHB, non-treated polystyrene plate
[13] = Table S2: ATCC 25922 FDA Control, CaMHB, non-treated polystyrene plate
[14] = Table S2: ATCC 25922 FDA Control, MHB, non-treated polystyrene 96-well plate
[15] = Table S2: MB4827 K12, CaMHB, non-treated polystyrene plate
[16] = Table S2: MB4827 K12, MHB, non-treated polystyrene plate

| Molecule | MIC (E. coli; [1]) | MIC (E. coli; [2]) | MIC (E. coli; [3]) | MIC (E. coli; [4]) | E. coli MIC (E. coli; [5]) | E. coli MIC (E. coli; [6]) | E. coli MIC (E. coli; [7]) | E. coli MIC (E. coli; [8]) | outer membrane damage: fluorescence of probe 9 labelling after treatment (in words) (E. coli ATCC 25922) | other results |
| --- | --- | --- | --- | --- | --- | --- | --- | --- | --- | --- |
| COc1cc(Cc2cnc(N)nc2N)cc(OC)c1OC [Trimethoprim] | 0.25 to 0.5 µg/mL (≈ 0.861 to 1.72 µM) | 0.25 to 0.5 µg/mL (≈ 0.861 to 1.72 µM) | 0.5 to 1 µg/mL (≈ 1.72 to 3.44 µM) | 0.5 to 1 µg/mL (≈ 1.72 to 3.44 µM) | – | – | – | – | – | E. coli MIC (E. coli): 1 to 2 µg/mL; MIC (E. coli; Escherichia coli, ATCC25922, read-out: E. coli MIC): 1 µg/mL (≈ 3.44 µM); MIC (E. coli; Escherichia coli, read-out: E. coli MIC): 0.5 µg/mL (≈ 1.72 µM) |
| CCCCCCC[C@@H](O)CC(=O)N[C@H](CCN)C(=O)N[C@H]1CCNC(=O)[C@H](CC(C)C)NC(=O)[C@H](CCN)NC(=O)[C@H](CCN)NC(=O)[C@H](CC(C)C)NC(=O)[C@@H](Cc2ccccc2)NC(=O)[C@H](CCN)NC1=O [Octapeptin C4] ({Decanoyl(3R-OH)}-[dDab][Dab][Dab][dF]L[Dab][Dab]L; lactam 2-C (inferred); N-terminus assumed) | – | – | – | – | 2 to 8 µg/mL | 1 to 2 µg/mL | 2 µg/mL | 2 µg/mL | substantially higher concentrations before membrane damage was seen | – |
| CNC(C)C1CCC(N)C(OC2C(N)CC(N)C(OC3OCC(C)(O)C(NC)C3O)C2O)O1 (centres unmarked) [Gentamicin sulfate] | 0.5 to 2 µg/mL | 0.5 to 4 µg/mL | 0.25 to 0.5 µg/mL | 0.25 to 0.5 µg/mL | – | – | – | – | – | MIC (E. coli; [9]): 1 µg/mL; MIC (E. coli; [10]): 2 µg/mL; MIC (E. coli; [11]): 0.5 to 1 µg/mL; MIC (E. coli; [12]): 0.5 to 1 µg/mL |
| Colistin sulfate | – | – | – | – | 0.125 to 0.25 µg/mL | 0.125 µg/mL | 0.03 to 0.06 µg/mL | 0.03 to 0.06 µg/mL | – | E. coli MIC (E. coli; [13]): 0.25 µg/mL; E. coli MIC (E. coli; [14]): 0.25 µg/mL; E. coli MIC (E. coli; [15]): 0.06 to 0.25 µg/mL; E. coli MIC (E. coli; [16]): 0.06 to 0.125 µg/mL |
| CC[C@H](C)[C@@H]1NC(=O)CNC(=O)[C@H](CCCNC(=N)N)NC(=O)[C@H](Cc2ccc(O)cc2)NC(=O)[C@@H]2CSSC[C@H](NC1=O)C(=O)N[C@@H](Cc1ccc(O)cc1)C(=O)N[C@@H](CCCNC(=N)N)C(=O)N[C@@H](CCCNC(=N)N)C(=O)N[C@H](C(=O)N[C@@H](CCCNC(=N)N)C(N)=O)CSSC[C@H](NC(=O)[C@H](Cc1c[nH]c3ccccc13)NC(=O)[C@@H](N)CCCCN)C(=O)N[C@@H](Cc1ccccc1)C(=O)N[C@@H](CCCNC(=N)N)C(=O)N[C@@H](C(C)C)C(=O)N2 [Tachyplesin-1] (H-KWCFRVCYRGICYRRCR-NH2; disulfide 3-16, 7-12 (inferred); N-terminus and C-terminus assumed) | – | – | – | – | – | – | – | – | increased fluorescence at the lowest concentrations | – |
| CC(C)[C@@H]1NC(=O)CNC(=O)[C@H](CC(N)=O)NC(=O)[C@H](CCCNC(=N)N)NC(=O)[C@H](Cc2ccc(O)cc2)NC(=O)[C@H](C(C)C)NC(=O)[C@@H]2CSSC[C@H](NC(=O)[C@H](C(C)C)NC(=O)[C@H](CCCNC(=N)N)NC1=O)C(=O)N[C@@H](Cc1ccc(O)cc1)C(=O)N[C@@H](CCCNC(=N)N)C(=O)N[C@@H](CCCNC(=N)N)C(=O)N[C@H](C(=O)N[C@@H](CC(N)=O)C(=O)O)CSSC[C@H](NC(=O)[C@H](Cc1ccccc1)NC(=O)CN)C(=O)N[C@@H](Cc1c[nH]c3ccccc13)C(=O)N[C@@H](Cc1ccc(O)cc1)C(=O)N[C@@H](C(C)C)C(=O)N2 [Arenicin-3] (H-GFCWYVCVYRNGVRVCYRRCN-OH; disulfide 3-20, 7-16; N-terminus and C-terminus assumed) | – | – | – | – | 2 to 8 µg/mL | 2 to 8 µg/mL | 1 µg/mL | 1 to 2 µg/mL | increased fluorescence at the lowest concentrations | – |
| CC[C@H](C)[C@H](NC(=O)[C@@H](NC(=O)[C@H](CO)NC(=O)[C@H](C)NC(=O)[C@@H](NC(=O)[C@H](CCCCN)NC(=O)[C@H](CCCCN)NC(=O)[C@@H](NC(=O)[C@@H](NC(=O)[C@H](CC(=O)O)NC(=O)[C@H](Cc1ccccc1)NC(=O)[C@H](CC(C)C)NC(=O)CN)C(C)C)[C@@H](C)CC)C(C)C)C(C)C)C(=O)NCC(=O)NCC(=O)N[C@@H](CC(C)C)C(N)=O [Citropin 1.1] (H-GLFDVIKKVASVIGGL-NH2; N-terminus and C-terminus assumed) | – | – | – | – | – | – | – | – | substantially higher concentrations before membrane damage was seen | – |
| CC[C@H]1OC(=O)[C@H](C)[C@@H](O[C@H]2C[C@@](C)(OC)[C@@H](O)[C@H](C)O2)[C@H](C)[C@@H](O[C@@H]2O[C@H](C)C[C@H](N(C)C)[C@H]2O)[C@](C)(O)C[C@@H](C)C(=O)[C@H](C)[C@@H](O)[C@]1(C)O [Erythromycin] | > 64 µg/mL | > 64 µg/mL | 8 µg/mL (≈ 10.9 µM) | 8 µg/mL (≈ 10.9 µM) | – | – | – | – | – | MIC (E. coli; [9]): 64 µg/mL (≈ 87.2 µM); MIC (E. coli; [10]): 64 µg/mL (≈ 87.2 µM); MIC (E. coli; [11]): > 64 µg/mL; MIC (E. coli; [12]): 64 µg/mL (≈ 87.2 µM) |
| CN[C@H](CC(C)C)C(=O)N[C@H]1C(=O)N[C@@H](CC(N)=O)C(=O)N[C@H]2C(=O)N[C@H]3C(=O)N[C@H](C(=O)N[C@H](C(=O)O)c4cc(O)cc(O)c4-c4cc3ccc4O)[C@H](O)c3ccc(c(Cl)c3)Oc3cc2cc(c3O[C@@H]2O[C@H](CO)[C@@H](O)[C@H](O)[C@H]2O[C@H]2C[C@](C)(N)[C@H](O)[C@H](C)O2)Oc2ccc(cc2Cl)[C@H]1O [1 Vancomycin, Vancomycin] | – | – | – | – | – | – | – | – | – | MIC (E. coli; 3 h): > 64 µg/mL |
| Polymyxin B | – | – | – | – | – | – | 0.03 to 0.06 µg/mL | 0.03 to 0.06 µg/mL | – | E. coli MIC (E. coli; ATCC 29522, NBS 96-well plates (Table 2)): 0.06 µg/mL; E. coli MIC (E. coli; CFT073, NBS plates (Table 2)): ≤0.03 µg/mL; E. coli MIC (E. coli; CFT073 WaaL mutant, NBS plates (Table 2)): ≤0.03 µg/mL; E. coli MIC (E. coli; DC2 mutant, NBS plates (Table 2)): ≤0.03 µg/mL; E. coli MIC (E. coli; LpxC mutant, NBS plates (Table 2)): ≤0.03 µg/mL; E. coli MIC (E. coli; MB4827 K12, NBS plates (Table 2)): ≤0.03 µg/mL; E. coli MIC (E. coli; [13]): 0.125 µg/mL; E. coli MIC (E. coli; [14]): 0.125 µg/mL; E. coli MIC (E. coli; [15]): 0.125 µg/mL; E. coli MIC (E. coli; [16]): 0.125 µg/mL |
